Assay results from article PMC539285, “Anti-Plasmodium activity of ceramide analogs” (Malaria Journal, 2004).

Tests used:
P. falciparum = test: Apoptosis of parasites (TdT DNA fragmentation assay, gel electrophoresis, fluorescence microscopy); format: cell-based, Plasmodium falciparum; conditions: 1 μM for up to 36 hours (unpublished data, preliminary)
Excerpt: Ceramide is at the parting of different ways of sphingolipid metabolism. Analogs have the potential to inhibit different ceramide-metabolizing enzymes and then might have a pleiotropic effect. Ceramide analogs in amide linkage were described as potent inhibitors of alkaline ceramidase in HL60 human myeloid leukemic cells. Methylene analogs inhibit the biosynthesis of SPM and glycosphingolipids in HL60 cells, and acid ceramidase in vitro [10]. When applied to cancer cells, such analogs induced an elevation of the endogenous level of ceramide with the consequent effects of growth suppression and cell death by apoptosis. […] Apoptosis in P. falciparum is still controversial although some characteristics of apoptosis has been described in Plasmodium. […] The hypothesis that AD2646 induced parasite death through modulation of endogenous ceramide level, as observed for cancer cells, is under investigation.

[1] = test system: P. falciparum sphingomyelin synthase activity; test: Sphingomyelin synthase activity assay in trophozoite cultures (NBD-C6-ceramide); format: cell-based, Plasmodium falciparum; conditions: trophozoites 20-30 h, 0-500 μM drug, 10 μM NBD-C6-ceramide, 60 min, 37°C
Experimental: SPM synthase activity was measured as described by Haldar et al.. Briefly, assays were performed on P. falciparum cultures at the trophozoite stage (20–30 h old parasites). 400 μl of culture (1 × 10^8 parasites) were incubated for 60 min at 37°C with 10 μM NBD-C6-ceramide and 0 to 500 μM PPMP or AD2646. Cells were then lysed by freezing and thawing of the culture. Lipids were extracted by a modification of the method of Bligh and Dyer. To each sample, three volumes of a CH3OH/CHCl3 mixture (1:2, v:v) were added and the mixture vortexed for one min. Organic and aqueous phases were separated by centrifugation (12,000 × g, five min) and the organic phase was dried. Lipids were dissolved in 15 μl ethanol and analysed by thin layer chromatography on HPTLC plates (Silica gel 60 F254, Merck, Darmstadt, Germany) in CH3OH/[…]/NH4OH (75:25:4, v:v:v). For qualitative analyses, the fluorescent lipids were detected under UV and for quantitative analyses, the fluorescent lipid spots were scraped, eluted in one ml methanol and quantified at an excitation of 470 nm and an emission of 530 nm in a spectrofluorometer. The percentage of SPM synthase activity for each drug concentration was determined by comparison of the fluorescence quantified in the analog-treated culture with that in the control culture (without drug).

CQ-resistant strain K1 = test: Drug combination with antimalarial drugs, strain K1; format: cell-based, Plasmodium falciparum; conditions: CQ-resistant strain K1 (data not shown)
Excerpt: (§1) Compound AD2646 (Figure 1) was selected to further investigate the biological effects of methylene analogs on parasite development.

FcB1 strain = test: Drug combination with antimalarial drugs, strain FcB1; format: cell-based, Plasmodium falciparum; conditions: FcB1 strain (data not shown)
Excerpt: as §1

P. falciparum strain F32 = test: Anti-Plasmodium activity, strain F32; format: cell-based
Experimental: (§2) P. falciparum strains (FcB1/Colombia, K1/Thailand, F32/Tanzania, W2/Indochina) were maintained in continuous culture on human erythrocytes in RPMI medium containing 7% (v/v) heat-inactivated human serum under an atmosphere of 3% CO2, 6% O2, 91% N2, at 37°C, as described by Trager and Jensen. Parasite synchronization was performed successively by treatment with 5% (w/v) sorbitol and by concentration in gelatin solution as previously described.
(§3) Drug susceptibility assays were performed using a modification of the semi automated microdilution technique of Desjardins et al.. Stock solutions of test compounds were prepared in DMSO. Drug solutions were serially diluted twofold with 100 μl culture medium in 96-well plates. Asynchronous parasite cultures (100 μl, 1 % parasitemia and 1 % final hematocrite) were added to each well and incubated for 24 hours at 37°C prior to the addition of 0.5 μCi of [^3H] hypoxanthine (Amersham, France, 1 to 5 Ci.mmol/ml) per well. After a further incubation of 24 hour, plates were frozen and thawed. Cell lysates were then collected onto glass-filter papers and counted in a liquid scintillation spectrometer. The growth inhibition for each drug concentration was determined by comparison of the radioactivity incorporated in the treated culture with that in the control culture (having the same final % of DMSO) maintained on the same plate. […]

[2] = test system: chloroquine-resistant strain FcB1 of P. falciparum; test: Anti-Plasmodium activity, [3H]hypoxanthine microdilution on asynchronous cultures; format: cell-based, Plasmodium falciparum
Experimental: as §2
Drug susceptibility assays were performed using a modification of the semi automated microdilution technique of Desjardins et al.. Stock solutions of test compounds were prepared in DMSO. Drug solutions were serially diluted twofold with 100 μl culture medium in 96-well plates. Asynchronous parasite cultures (100 μl, 1 % parasitemia and 1 % final hematocrite) were added to each well and incubated for 24 hours at 37°C prior to the addition of 0.5 μCi of [^3H] hypoxanthine (Amersham, France, 1 to 5 Ci.mmol/ml) per well. After a further incubation of 24 hour, plates were frozen and thawed. Cell lysates were then collected onto glass-filter papers and counted in a liquid scintillation spectrometer. The growth inhibition for each drug concentration was determined by comparison of the radioactivity incorporated in the treated culture with that in the control culture (having the same final % of DMSO) maintained on the same plate. The concentration causing 50% growth inhibition (IC50) and 90% growth (IC90) were obtained from the drug concentration-response curve and the results were expressed as the means ± the standard deviations determined from several independent experiments.

P. falciparum strain K1 = test: Anti-Plasmodium activity, strain K1; format: cell-based
Experimental: as §2, §3

SMILES: CCCCCCCCCCCCCCN[C@H](CO)[C@H](O)c1ccc([N+](=O)[O-])cc1 [AD2646]
- apoptosis of parasites (P. falciparum): failed to exhibit characteristic apoptosis
- inhibition of SPM synthase activity (shape of curve) [1]: biphasic inhibition curve that superimposes on the PPMP inhibition curve
- drug combination effect with CQ (CQ-resistant strain K1): non-synergistic and non-antagonistic effect
- drug combination effect with artemether (FcB1 strain): non-synergistic and non-antagonistic effect
- drug combination effect with mefloquine (FcB1 strain): non-synergistic and non-antagonistic effect
- IC50 (P. falciparum strain F32): 0.021 µM
- efficiency in inhibiting parasite development relative to PPMP ([2]; AD2646 versus PPMP): about 300 times
- IC90 ([2]; Plasmodium falciparum, 48 h, Figure 3, series B, strain FcB1, 90% growth inhibition, read-out: CI90 (the source's name)): 0.0577 ± 0.0032 µM
- IC50 ([2]; Plasmodium falciparum, Figure 3, series B (methylene or thiourea linkage), strain FcB1, read-out: CI50 (the source's name)): 0.0308 ± 0.0046 µM
- IC50 (P. falciparum strain K1): 0.045 µM
